Measurements as given in paper PMC11301932 (Fluids and Barriers of the CNS, 2024).
Read-outs that look alike come from different tables or passages of the source.

What was measured:
[1] = Plasma concentration at the end of the 3 h i.p. infusion; type: in vivo; details: male, FVB, mouse, ip
Abcb1a/b = Abcb1a/b (Mus musculus, UniProt P21447); assay: Inhibition of efflux of substrate drugs from the brain of Abcg2 KO mice; type: in vivo
Abcg2 = biological target: T1, Abcg2 (Mus musculus, UniProt Q7TMS5); assay: Inhibition of efflux of substrate drugs from the brain of Abcb1a/b KO mice; type: in vivo
T1 sequence (Q7TMS5 1-657): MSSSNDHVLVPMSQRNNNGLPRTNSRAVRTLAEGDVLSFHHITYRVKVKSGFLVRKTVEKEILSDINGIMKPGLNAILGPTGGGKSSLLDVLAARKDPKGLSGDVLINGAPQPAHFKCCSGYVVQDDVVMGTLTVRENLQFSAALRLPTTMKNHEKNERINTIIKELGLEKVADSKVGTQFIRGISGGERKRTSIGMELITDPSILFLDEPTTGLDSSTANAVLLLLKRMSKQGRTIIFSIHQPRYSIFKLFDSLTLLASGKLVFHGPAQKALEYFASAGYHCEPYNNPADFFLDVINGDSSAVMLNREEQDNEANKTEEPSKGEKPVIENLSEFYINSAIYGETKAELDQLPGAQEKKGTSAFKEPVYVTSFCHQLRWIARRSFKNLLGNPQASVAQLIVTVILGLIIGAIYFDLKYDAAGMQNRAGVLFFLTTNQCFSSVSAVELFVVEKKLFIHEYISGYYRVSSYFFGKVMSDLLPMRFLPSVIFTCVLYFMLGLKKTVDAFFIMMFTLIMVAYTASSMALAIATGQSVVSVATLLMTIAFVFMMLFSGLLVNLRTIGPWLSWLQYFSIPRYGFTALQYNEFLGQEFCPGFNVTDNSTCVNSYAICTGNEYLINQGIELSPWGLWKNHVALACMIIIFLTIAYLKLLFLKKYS

[2] = Rapid equilibrium dialysis; type: in vitro ADME
[3] = cited from earlier work
[4] = standard procedure using buffer in the receiver compartment; ref [24], [33]; cited from earlier work
ABCB1 = details: humans, cited from earlier work
human ABCG2/BCRP = biological target: T2, human ABCG2/BCRP (Homo sapiens, UniProt Q9UNQ0); assay: Drug accumulation assay in MDCKII-BCRP cells with 8-drug mixture plus inhibitor; details: in vitro, MDCKII-BCRP vs MDCK-MDR1
T2 sequence (Q9UNQ0 1-655): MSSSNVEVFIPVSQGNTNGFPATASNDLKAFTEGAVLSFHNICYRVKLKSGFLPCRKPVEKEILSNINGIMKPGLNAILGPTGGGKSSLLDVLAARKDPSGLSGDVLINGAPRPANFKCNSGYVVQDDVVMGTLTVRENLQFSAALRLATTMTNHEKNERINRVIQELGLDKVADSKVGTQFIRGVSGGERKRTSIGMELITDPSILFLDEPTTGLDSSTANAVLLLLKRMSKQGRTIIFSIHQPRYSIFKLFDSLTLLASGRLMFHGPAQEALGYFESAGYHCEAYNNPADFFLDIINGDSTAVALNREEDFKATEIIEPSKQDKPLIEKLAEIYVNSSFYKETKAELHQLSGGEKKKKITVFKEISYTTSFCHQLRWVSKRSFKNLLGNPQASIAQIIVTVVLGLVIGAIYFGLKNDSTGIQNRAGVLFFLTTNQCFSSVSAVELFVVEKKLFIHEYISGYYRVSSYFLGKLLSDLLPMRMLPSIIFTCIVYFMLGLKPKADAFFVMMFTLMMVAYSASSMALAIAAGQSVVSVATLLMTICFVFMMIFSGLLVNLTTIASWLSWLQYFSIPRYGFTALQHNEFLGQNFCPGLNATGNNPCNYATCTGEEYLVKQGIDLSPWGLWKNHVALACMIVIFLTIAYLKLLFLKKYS

Brain penetration = details: WT mice, ABC transporter mediated efflux present, no inhibitor
[5] = cited from earlier work; remark: listed apart in the source
Abcb1a/b and Abcg2 = assay: Inhibition of efflux of substrate drugs from the brain of WT mice; details: mouse, in vivo

Sequence of Abcb1a/b (P21447 whole entry): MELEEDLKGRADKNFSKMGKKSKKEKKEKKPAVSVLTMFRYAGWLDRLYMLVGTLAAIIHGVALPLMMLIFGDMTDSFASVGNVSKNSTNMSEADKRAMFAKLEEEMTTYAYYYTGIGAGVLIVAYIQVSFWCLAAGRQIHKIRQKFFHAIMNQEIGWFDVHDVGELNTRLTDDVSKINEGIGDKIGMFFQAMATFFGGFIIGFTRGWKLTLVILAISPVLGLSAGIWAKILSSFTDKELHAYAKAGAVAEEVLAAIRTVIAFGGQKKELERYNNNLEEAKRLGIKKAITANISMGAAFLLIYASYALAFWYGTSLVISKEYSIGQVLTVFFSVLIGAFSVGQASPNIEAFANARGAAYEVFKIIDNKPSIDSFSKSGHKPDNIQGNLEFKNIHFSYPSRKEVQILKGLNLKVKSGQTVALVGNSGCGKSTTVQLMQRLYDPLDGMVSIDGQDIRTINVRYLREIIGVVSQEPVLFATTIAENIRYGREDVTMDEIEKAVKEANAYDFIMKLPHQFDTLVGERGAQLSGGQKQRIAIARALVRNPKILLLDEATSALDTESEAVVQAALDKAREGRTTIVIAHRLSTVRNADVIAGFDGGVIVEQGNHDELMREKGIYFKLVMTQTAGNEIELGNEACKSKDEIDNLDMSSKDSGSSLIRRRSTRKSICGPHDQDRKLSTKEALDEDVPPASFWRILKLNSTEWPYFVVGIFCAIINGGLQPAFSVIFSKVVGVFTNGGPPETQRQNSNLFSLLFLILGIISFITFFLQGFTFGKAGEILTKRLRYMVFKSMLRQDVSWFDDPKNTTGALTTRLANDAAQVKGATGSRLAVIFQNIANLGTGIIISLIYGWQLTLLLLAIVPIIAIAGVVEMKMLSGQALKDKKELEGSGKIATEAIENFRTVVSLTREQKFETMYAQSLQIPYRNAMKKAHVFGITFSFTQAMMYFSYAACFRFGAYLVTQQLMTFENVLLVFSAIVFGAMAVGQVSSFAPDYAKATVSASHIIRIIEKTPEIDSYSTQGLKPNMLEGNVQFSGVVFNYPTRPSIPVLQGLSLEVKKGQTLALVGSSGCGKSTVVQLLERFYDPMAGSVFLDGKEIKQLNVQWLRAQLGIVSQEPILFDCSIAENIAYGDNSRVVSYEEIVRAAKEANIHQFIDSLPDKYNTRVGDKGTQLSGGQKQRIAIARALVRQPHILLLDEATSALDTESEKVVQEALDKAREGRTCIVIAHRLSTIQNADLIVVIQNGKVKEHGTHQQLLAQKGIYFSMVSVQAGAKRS

## COc1ccc(CCN(C)CCCC(C#N)(c2ccc(OC)c(OC)c2)C(C)C)cc1OC (stereo not shown) [Verapamil]
[1]
  concentration at 3 h: 100 to 250 nM

## COc1cc2c(cc1OC)CN(CCc1ccc(NC(=O)c3cc(OC)c(OC)cc3NC(=O)c3cnc4ccccc4c3)cc1)CC2 [Tariquidar]
Abcb1a/b
  Inhibitor plasma level for (near) complete inhibition of ABCB1 at the BBB: at least 4000 nM
  Plasma level above which own B/P ratio starts to increase: above 4000 nM
Abcb1a/b; for loperamide and afatinib
  Tariquidar plasma level required for near complete ABCB1 inhibition: ≥ 6 µM
Abcb1a/b; for verapamil and erlotinib
  Tariquidar plasma level required for near complete ABCB1 inhibition: at least 4000 nM
Abcg2; Abcb1a/b KO and WT mice (Abcg2 proficient)
  Change of own B/P ratio with plasma concentration: did not increase
Abcg2; Abcb1a/b KO mice
  Enhancement of brain accumulation of ABCG2-substrate drugs: none of the ABCG2-substrate drugs exhibit significant enhancement
[1]; 10.5 mg/kg/h
  concentration at 3 h: > 6000 nM
[2]; RED competition setup
  Plasma protein binding, mouse versus human plasma: very high but similar in mouse and human plasma
[2]; RED, undiluted human or mouse plasma to human plasma, after 24 h of incubation
  Fraction retrieved in the receiver chamber: 2–3%
[3]; humans, tariquidar 4–8 mg/kg i.v., 1.5–2.5 h, ref [19], [35]
  Plasma level at the end of the infusion: 3000 to 4000 nM
[3]; oral dosing in humans, ref [20]
  Oral bioavailability: very low
[4]
  Free fraction: below 0.01
ABCB1; tariquidar 4–8 mg/kg, infusion 1.5–2.5 h, ref [19], [35]
  Fold increase of VT, brain of [11C]verapamil: 3.5 fold
ABCB1; tariquidar 2 mg/kg, 30 min i.v. infusion, ref [41]
  Fold increased brain radioactivity of [11C]verapamil: ≤ 2 fold
Human ABCG2/BCRP
  Fold higher IC50 for ABCG2 than for ABCB1: about 10 fold

## C#Cc1cccc(Nc2ncnc3cc(OCCOC)c(OCCOC)cc23)c1 [Erlotinib]
[1]
  concentration at 3 h: 100 to 250 nM

## CCCS(=O)(=O)Nc1ccc(F)c(C(=O)c2c[nH]c3ncc(-c4ccc(Cl)cc4)cc23)c1F [Vemurafenib]
[1]
  concentration at 3 h: 100 to 250 nM
Brain penetration
  B/P ratio: 0.02

## CNC(=O)c1cc(Oc2ccc(N[11C](=O)Nc3ccc(Cl)c(C(F)(F)F)c3)cc2)ccn1 [[^11C]sorafenib]
[5]; PET, ref [38]
  Fold higher brain uptake in Abcg2;Abcb1a/b KO vs WT mice: 3 fold

## COc1cc2c(cc1OC)CN(CCc1ccc(NC(=O)c3cccc4c(=O)c5cccc(OC)c5[nH]c34)cc1)CC2 [Elacridar, 9,10-dihydro-5-methoxy-9-oxo-N-[4-[2-(1,2,3,4-tetrahydro-6,7-dimethoxy-2-isoquinolinyl)ethyl]phenyl]-4-acridine-carboxamide]
Abcg2; Abcb1a/b KO mice, palbociclib, dasatinib and erlotinib (Class II)
  Elacridar plasma level for maximum inhibition of efflux: above 1200 nM
Abcg2; brain efflux in mice
  Plasma level at which inhibitor inhibits its own ABCG2-mediated efflux: about 1200 nM
Abcb1a/b and Abcg2
  Proposed target plasma level to enhance brain entry: 1200 nM and about 700 ng/ml
[4]
  Free fraction: below 0.01

## CNC(=O)c1cc(Oc2ccc(NC(=O)Nc3ccc(Cl)c(C(F)(F)F)c3)cc2)ccn1 [Sorafenib]
[5]; LC-MS/MS on brain homogenates, ref [39]
  Fold higher brain uptake in Abcg2;Abcb1a/b KO vs WT mice: 9.3 fold
